Assay [1] has as its system lipogénèse sébacée. Description: Activity on sebaceous lipogenesis in vitro (incorporation of 14C-glucose into lipids of rat ear skin slices). Format: cell-based, rats mâles Sprague Dawley. Conditions: 4 h, pure products, read-out: Synthèse des lipides à partir de glucose (U-1^14C)Δ % témoin; for inhibition at 0.01 %: concentration 0,01 %; for inhibition at 0.001 %: concentration 0,001 %; for inhibition at 0.0025 %: concentration 0,0025 %; for inhibition at 0.005 %: concentration 0,005 %; for inhibition at 0.0005 %: concentration 0,0005 %. An excerpt:
Après sacrifice au chloroforme de rats mâles Sprague Dawley, d'un poids moyen de 210 g, les oreilles sont découpées aux ciseaux suivant des repères anatomiques fixes, puis leur côté ventral est soigneusement rasé. Après fixation à l'aide de rubans adhésifs sur une plaque de verre, le côté ventral de l'oreille est prélivé à l'aide d'un kératotome de Castroviejo dont l'épaisseur de coupe est réglée sur 3 mm. Ce prélèvement est ensuite coupé en petits carrés de 1 mm^2 avec une lame de rasoir et pesé avant introduction dans le tube servant à l'incubation.
L'incubation se fait dans 1,5 ml de Krebs-Ringer tamponné à pH 7,4 (tampon phosphate Sôrensen 1/15 M) et contenant 100 U/ml de pénicilline, 1 mg/ml de Streptomycine et 2 mmol de glucose non radioactif. Le produit, à la concentration à étudier, est préalablement dissous dans du propylèneglycol (concentration finale égale à 0,5%), puis introduit dans le milieu d'incubation. Les tubes servant à l'incubation sont maintenus dans un bain de glace, jusqu'à ce que tous les prélèvements soient effectués, puis 7,4kBq de glucose U_^14C (74-148 MBq/mmol) sont ajoutés dans chaque tube.
Pour chaque rat utilisé, une des oreilles sert à tester le produit antiséborrhéique potentiel, alors que l'autre sert de témoin.
Après 4 heures d'incubation à 37°C, le milieu d'incubation est éliminé, puis l'incubat subit 4 lavages de 3 mins avec agitation à l'aide de glucose non radioactif (2 g/I). Une fois la dernière eau de lavage éliminée, 3 ml de potasse alcoolique N sont rajoutés dans chaque tube contenant les glandes sébacées de la peau d'oreille. Les tubes sont bouchés et portés à 70°C pendant une nuit.
Après ce temps, les tubes sont refroidis et 3 ml d'acide chlorhydrique 2N sont introduits dans chaque tube. Les lipides présents correspondant aux glandes sébacées de chaque oreille sont alors extraits par 2 fois 4 ml d'hexane après agitation de 5 min. Après séparation des phases aqueuse et hexanique, 3,25 ml d'hexane à la première extraction et 4 ml à la deuxième sont prélevés et réunis dans une fiole de comptage contenant 10 ml de liquide de mélange scintillant.
Les fioles, après bouchage et- agitation, sont introduites dans un compteur à scintillation liquide préréglé sur le canal ^14C. Le temps de comptage de chaque fiole est de 4 min. Pour chaque fiole, le résultat exprimé en coups/minute (cpm) est transformé en fonction du poids de prélèvement en cpm/mg et l'inhibition (ou l'augmentation) de la synthèse des lipides est donnée par la variation % (A%) de l'incorporation en cpm/mg entre l'oreille témoin et l'oreille "traitée".
La moyenne des A% est effectuée et la valeur statistique des résultats est déterminée par le calcul du coefficient "t" de Student.

Assay [2] concerns organes du flanc. Description: Local antiseborrheic activity (testosterone propionate-stimulated hamster flank organ, lipogenesis from 14C-glucose). Format: in vivo, hamsters femelles Syrien doré. Conditions: topical, dose de 2000 µg par jour. The protocol: Des hamsters femelles Syrien doré, d'un poids moyen de 110 g, sont tondus et rasés au niveau des organes du flanc qui se présentent sous l'aspect d'une tache sombre de 2 mm de diamètre environ, de part et d'autre de la colonne vertébrale. Sur un des organes, 1,25 µg de testostérone propionate est appliqué journellement sous un volume de 10 µl d'acétone, l'autre organe recevent la même quantité de testostérone associée au produit à étudier. Le traitement s'effectue 5 jours/7 jours pendant 21 jours.
A la fin de cette période, les animaux sont sacrifiés au chloroforme et les diamètres des taches pigmentées sont measurés à l'aide d'une régie graduée. La peau est prélevée, fixée côte épiderme vers le bas, sur une planche en bois. Le muscle peaucier et le tissu adipeux sont alors éliminés par rabotage au Kératotome de Castroviejo (épaisseur de coupe réglée à 3 mm), puis une biopsie de 10 mm de diamètre au niveau de chaque organe est réalisée à l'aide d'un trépan. Cette biopsie est débitée en carrés de 1 mm^2, puis pesée (±0,1 mg).
Le reste de manipulation: incubation, saponification, extraction, est identique à celui effectué dans le test de lipogénèse in vitro ci-dessus.

The structures appear in SMILES notation.

Turning to `CCCCCCCCCc1ccc(OCCOCCOCCOCCOCCOCCO)cc1` [40 124, nonyl-4 phénoxy-17 pentaoxa-3,6,9,12,15 heptadécanol-1], in assay [1], the inhibition at 0.01 % worked out at 55%, the inhibition at 0.001 % was found to be 6%, the inhibition at 0.0025 % turned out to be 31% and the inhibition at 0.005 % is 42%.

With `CC(C)(C)CC(C)(C)c1ccc(OCCOCCOCCOCCOCCOCCO)cc1` [40 181], in assay [1], the inhibition at 0.01 % is 67%, the inhibition at 0.001 % came to 4%, the inhibition at 0.0025 % was found to be 5% and the inhibition at 0.005 % was determined as 42%.

Take `CC(C)(C)CC(C)(C)c1ccc(OCCOCCOCCOCCOCCOCCOCCOCCOCCOCCOCCOCCO)cc1` [40 182]: in assay [1], the inhibition at 0.0005 % was 19%, the inhibition at 0.001 % was 41%, the inhibition at 0.0025 % was 69% and the inhibition at 0.005 % worked out at 89%.

Regarding `CCCCCCCCCc1ccc(OCCOCCOCCOCCOCCOCCOCCOCCOCCOCCOCCOCCO)cc1` [compound 7886], the inhibition at 0.00025 % in assay [1] (concentration 0,00025 %) came out at 6%. In assay [1], the inhibition at 0.0005 % is 33%, the inhibition at 0.001 % was 51% and the inhibition at 0.005 % was 84%. Further, the inhibition at 0.025 % in assay [1] (concentration 0,025 %) worked out at 71%. For the same molecule, in assay [2], the “inhibition de la lipogenèse sébacée par rapport au témoin” value turned out to be 100%.

For `CCCCCCCCCc1ccc(OCCOCCOCCOCCOCCOCCOCCOCCOCCO)cc1` [compound 7948], in assay [1], the inhibition at 0.01 % came to 81%, the inhibition at 0.001 % was found to be 10%, the inhibition at 0.0025 % stood at 31% and the inhibition at 0.005 % is 61%.

Values taken from patent EP0097567B1, “Use of polyethoxylated alkyl phenols as antiseborrheic agents” (SANOFI S.A., priority 1982, dated 1984).
